Values of other authors, collected in patent US20220088024A1, “METHODS FOR TREATING CANCER USING TOZADENANT” (Biotie Therapies, Inc., priority 2018, published 2022).

System: mouse tumor models
Conditions: cited from earlier work

| SMILES | Efficacy in mouse tumor models (alone and in combination with an anti-PD-1 agent (Willingham et al. 2016)) | Activity in a mouse tumor model (monotherapy (Hammerl et al. 2016)) |
| --- | --- | --- |
| Cc1ccc(-c2nc(N)nc3c2nnn3Cc2cccc(CO[C@H]3CCOC3)n2)o1 [CPI444] | effective | – |
| Nc1nc2c(cnn2CCc2ccccc2)c2nc(-c3ccco3)nn12 [SCH 58261] | – | demonstrated activity as monotherapy |
